Values of other authors, collected in patent US11912734B2, “Solid-phase synthesis of oligonucleotides containing N6-(2-deoxy-alpha,beta-derythropentofuranosyl)-2,6-diamino-4-hydroxy-5-formamidopyrimidine (Fapy⋅dG)” (The Johns Hopkins University, priority 2020, dated 2024).

How the values were obtained:
hOGG1 = hOGG1 (Homo sapiens, UniProt O15527); conditions: dC versus dA opposite the lesion
MutY = MutY (Escherichia coli, UniProt P17802); conditions: relative to 8-OxodGuo:dA duplex; more rapid than from a dG:dA mispair
Fpg = Fpg (Escherichia coli, UniProt P05523); conditions: Fapy·dG:dC versus Fapy·dG:dA
Sequence of Fpg (P05523 whole entry): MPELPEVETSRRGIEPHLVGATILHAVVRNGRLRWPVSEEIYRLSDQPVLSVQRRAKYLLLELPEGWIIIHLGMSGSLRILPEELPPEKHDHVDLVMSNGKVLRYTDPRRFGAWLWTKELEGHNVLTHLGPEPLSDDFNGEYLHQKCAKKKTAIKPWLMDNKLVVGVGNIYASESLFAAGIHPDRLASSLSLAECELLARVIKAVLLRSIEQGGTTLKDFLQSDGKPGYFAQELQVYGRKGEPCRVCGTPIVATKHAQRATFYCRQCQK

Sequence of hOGG1 (O15527 whole entry): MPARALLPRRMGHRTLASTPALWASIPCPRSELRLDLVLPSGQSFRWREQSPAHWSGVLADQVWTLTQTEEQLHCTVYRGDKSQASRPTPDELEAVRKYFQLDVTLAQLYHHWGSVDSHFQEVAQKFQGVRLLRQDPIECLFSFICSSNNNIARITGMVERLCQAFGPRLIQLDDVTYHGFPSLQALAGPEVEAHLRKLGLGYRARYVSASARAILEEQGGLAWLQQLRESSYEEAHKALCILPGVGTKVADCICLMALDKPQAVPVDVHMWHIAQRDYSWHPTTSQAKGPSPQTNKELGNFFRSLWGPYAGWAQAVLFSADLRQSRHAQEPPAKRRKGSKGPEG
Sequence of MutY (P17802 whole entry): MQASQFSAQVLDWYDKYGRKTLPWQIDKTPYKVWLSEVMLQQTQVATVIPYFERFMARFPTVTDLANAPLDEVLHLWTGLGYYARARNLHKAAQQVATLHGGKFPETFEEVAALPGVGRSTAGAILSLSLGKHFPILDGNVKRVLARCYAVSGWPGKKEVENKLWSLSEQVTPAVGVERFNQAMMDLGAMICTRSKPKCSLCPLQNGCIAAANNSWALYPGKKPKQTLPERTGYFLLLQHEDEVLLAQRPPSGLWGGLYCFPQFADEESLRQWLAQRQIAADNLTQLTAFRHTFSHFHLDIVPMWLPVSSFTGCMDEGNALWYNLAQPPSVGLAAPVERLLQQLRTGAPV

## Nc1nc(O)c(NC=O)c(NC2C[C@H](O)[C@@H](CO)O2)n1 (stereo partly drawn) [Fapy·dG, N6-(2-Deoxy-α,β-D-erythropentofuranosyl)-2,6-diamino-4-hydroxy-5-formamidopyrimidine]
hOGG1
  discrimination against a Fapy·dG:dA base pair: more than 40 fold
MutY
  incision of mismatched dA opposite Fapy·dG, more slowly than from a duplex containing 8-OxodGuo:dA: 4 fold
Fpg
  efficiency of glycosidic bond hydrolysis of the lesion in a Fapy·dG:dC base pair relative to opposite dA: ~20 times
